Source: patent US11696913B2, “Prolonged ectoparasite-controlling agent for animal” (MITSUI CHEMICALS AGRO, INC., priority 2017, dated 2023)
Like-named read-outs stand apart in the source and are kept apart here.

Legend:
[1] = system: Rhipicephalus (Boophilus) microplus; assay: In vitro injection test with Rhipicephalus (Boophilus) microplus (BOOPMI Inj); conditions: 168 h, laid fertile eggs after 7 days, read-out: acaricidal activity; for pest or weed control at 0.00016 mg: dose 0.16 μg/animal injected; for pest or weed control at 0.0008 mg: dose 0.8 μg/animal injected; for pest or weed control at 32 ng: dose 0.032 μg/animal injected
Summary of the method: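 Test substance in DMSO; 1 μl injected into abdomen of each of 5 engorged adult female ticks, then held at 28° C., 85% rel. hum. Activity scored after 7 days from laying of fertile eggs: 100% = no eggs or all infertile, 0% = all eggs fertile.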

Ctenocephalides felis [2] = assay: In vitro contact test with fleas; conditions: read-out: insecticidal activity; for pest or weed control at 1 µg/cm2, 1 µg/cm2: dose 1 μg/cm^2, dead or moribund fleas after 48 h; for pest or weed control at 0.2 µg/cm2, 0.2 µg/cm2: dose 0.2 μg/cm^2, dead or moribund fleas after 48 h
Summary of the method: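 Adult male and female cat fleas (5-10 per tube) placed in glass tubes coated with compound from acetone solution (900 ppm gives 5 μg/cm^2), kept at room temperature and ambient humidity. After 48 h, motionless or uncoordinated fleas scored dead or moribund; activity expressed as % dead or moribund.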

Laodelphax striatellus = assay: Insecticidal testing against small brown planthopper; format: in vivo; conditions: 144 h, concentration 100 ppm, sprayed rice seedlings, after 6 days, read-out: pesticidal rate
Summary of the method: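 Acetone solution of compound at a set concentration sprayed onto rice seedlings, air-dried, then exposed to 10 planthoppers (one group). Held at 25° C; survival rate recorded after 6 days.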

Ctenocephalides felis [3] = assay: Ctenocephalides felis in-vitro feeding test with fleas (CTECFE oral); conditions: 48 hours, read-out: insecticidal feeding activity; for pest or weed control at 0.032 ppm: dose 0.032 ppm in citrated cattle blood; for pest or weed control at 0.16 ppm: dose 0.16 ppm in citrated cattle blood; for pest or weed control at 0.8 ppm: dose 0.8 ppm in citrated cattle blood; for pest or weed control at 4 ppm: dose 4 ppm in citrated cattle blood
Summary of the method: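 About 20 unfed adult cat fleas fed through parafilm on citrated cattle blood containing test substance (DMSO solution diluted in blood), held at about 37° C. Kill rate scored after 48 hours, 100% meaning all fleas dead.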

Spodoptera litura = assay: Insecticidal testing against common cutworm; format: in vivo; conditions: foliar, 144 h, concentration 100 ppm, cabbage leaf dip, second-stage larvae, after 6 days, read-out: pesticidal rate
From the text: Insecticidal Testing Against Common Cutworm (Spodoptera litura)

Ixodes ricinus = assay: In vitro contact test with adult hard ticks (Ixodes ricinus); conditions: read-out: acaricidal activity; for pest or weed control at 5 µg/cm2, 5 µg/cm2: dose 5 μg/cm^2, 48 h
Protocol: In Vitro Contact Tests with Adult Hard Ticks
In vitro contact tests with ticks were conducted with adult males and females of Rhipicephalus sanguineus, Ixodes ricinus, or Dermacentor variabilis, or nymphs of Amblyomma americanum.
For the coating of the test vials, the test substance was dissolved and diluted in acetone p.a. to the desired concentration. The solution was then homogeneously applied to the inner wall and base of a glass vial by turning and rocking on an orbital shaker until complete evaporation of the solvent. For example, with a 900 ppm solution of test substance, an area-based dose of 5 μg/cm^2 was achieved.
After the solvent was completely evaporated, 5-10 adult ticks were put in each coated test vial, which was then sealed with a perforated plastic lid and incubated in a horizontal position in the dark at room temperature and ambient humidity (Rhipicephalus sanguineus) or in a climate-controlled cabinet (Ixodes ricinus, Dermacentor variabilis, Amblyomma americanum [21° C., 85% rel. hum.]). Acaricidal activity against the respective tick species was determined after 48 h. For this, ticks were collected to the base of the test vial by gentle knocking, and test vials were then incubated on a hotplate at 45-50° C. for no longer than 5 min. Ticks which remained motionless on the base of the test vial or moved uncoordinated without deliberately climbing up to avoid the heat were considered dead or moribund, respectively.
A substance was judged to have good acaricidal activity against the respective tick species when at least 80% of ticks were found dead or moribund at a dose of the substance of g/cm^2. An acaricidal activity of 100% means all ticks were dead or moribund. An acaricidal activity of 0% means none of the ticks was found dead or moribund.

Dermacentor variabilis = assay: In vitro contact test with adult hard ticks (Dermacentor variabilis); conditions: read-out: acaricidal activity; for pest or weed control at 0.2 µg/cm2, 0.2 µg/cm2: dose 0.2 μg/cm^2, 48 h; for pest or weed control at 1 µg/cm2, 1 µg/cm2: dose 1 μg/cm^2, 48 h
Summary of the method: (§1)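 Adult R. sanguineus, I. ricinus, D. variabilis or A. americanum nymphs exposed in glass vials coated with compound from acetone (900 ppm gives 5 μg/cm^2). Held 48 h at room temperature (R. sanguineus) or 21° C., 85% rel. hum.; then heated at 45-50° C. ≤5 min, motionless or uncoordinated ticks scored dead/moribund.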

Rhipicephalus sanguineus = assay: In vitro contact test with adult hard ticks (Rhipicephalus sanguineus); conditions: read-out: acaricidal activity; for pest or weed control at 0.2 µg/cm2, 0.2 µg/cm2: dose 0.2 μg/cm^2, 48 h; for pest or weed control at 1 µg/cm2, 1 µg/cm2: dose 1 μg/cm^2, 48 h; for pest or weed control at 0.04 µg/cm2, 0.04 µg/cm2: dose 0.04 μg/cm^2, 48 h
Summary of the method: as §1

Plutella xylostella = assay: Insecticidal testing against diamondback moth; format: in vivo; conditions: foliar, 144 h, concentration 100 ppm, cabbage leaf dip, third-stage larvae, after 6 days, read-out: pesticidal rate
From the text: Insecticidal Testing Against Diamondback Moth (Plutella xylostella)

Amblyomma americanum = assay: In vitro contact test with hard ticks (Amblyomma americanum nymphs); conditions: read-out: acaricidal activity; for pest or weed control at 0.2 µg/cm2, 0.2 µg/cm2: dose 0.2 μg/cm^2, 48 h; for pest or weed control at 1 µg/cm2, 1 µg/cm2: dose 1 μg/cm^2, 48 h
Summary of the method: as §1

Row | SMILES | pest or weed control at 0.00016 mg [1] [%] | pest or weed control at 0.0008 mg [1] [%] | pest or weed control at 1 µg/cm2, 1 µg/cm2 (Ctenocephalides felis [2]) [%] | pest or weed control at 100 ppm (Laodelphax striatellus) [%] | pest or weed control at 0.032 ppm (Ctenocephalides felis [3]) [%] | pest or weed control at 0.16 ppm (Ctenocephalides felis [3]) [%] | pest or weed control at 0.8 ppm (Ctenocephalides felis [3]) [%] | pest or weed control at 4 ppm (Ctenocephalides felis [3]) [%] | pest or weed control at 100 ppm (Spodoptera litura) [%] | pest or weed control at 0.2 µg/cm2, 0.2 µg/cm2 (Ixodes ricinus; dose 0.2 μg/cm^2, 48 h) [%] | pest or weed control at 1 µg/cm2, 1 µg/cm2 (Ixodes ricinus; dose 1 μg/cm^2, 48 h) [%] | pest or weed control at 5 µg/cm2, 5 µg/cm2 (Ixodes ricinus) [%] | pest or weed control at 0.2 µg/cm2, 0.2 µg/cm2 (Dermacentor variabilis) [%] | pest or weed control at 1 µg/cm2, 1 µg/cm2 (Dermacentor variabilis) [%] | pest or weed control at 0.2 µg/cm2, 0.2 µg/cm2 (Rhipicephalus sanguineus) [%] | pest or weed control at 1 µg/cm2, 1 µg/cm2 (Rhipicephalus sanguineus) [%] | pest or weed control at 100 ppm (Plutella xylostella) [%] | pest or weed control at 0.2 µg/cm2, 0.2 µg/cm2 (Ctenocephalides felis [2]) [%] | pest or weed control at 32 ng [1] [%] | pest or weed control at 0.2 µg/cm2, 0.2 µg/cm2 (Amblyomma americanum) [%] | other results
1 | O=C(Nc1cccc(C(=O)Nc2c(I)cc(C(F)(C(F)(F)F)C(F)(F)F)cc2C(F)(F)F)c1F)c1ccc(F)cc1 [Compound 63] | 100 | 100 | 95 | ≥ 70 | 95 | 95 | 95 | 95 | ≥ 70 | 90 | 90 | 90 | 90 | 90 | 90 | 90 | ≥ 70 | – | – | – | –
2 | CN(C(=O)c1ccc(F)cc1)c1cccc(C(=O)Nc2c(Cl)cc(C(F)(C(F)(F)F)C(F)(F)F)cc2C(F)(F)F)c1F [Compound 68] | 100 | 100 | 95 | ≥ 70 | 95 | 95 | 95 | 95 | ≥ 70 | – | 90 | 90 | – | 90 | 90 | 90 | ≥ 70 | 95 | – | – | pest or weed control at 0.04 µg/cm2, 0.04 µg/cm2 (Rhipicephalus sanguineus): 90%
3 | O=C(Nc1cccc(C(=O)Nc2c(I)cc(C(F)(C(F)(F)F)C(F)(F)F)cc2C(F)(F)F)c1F)c1ccc(Cl)c(Cl)c1 [Compound 80] | – | 100 | – | ≥ 70 | 95 | 95 | 95 | 95 | ≥ 70 | – | – | 90 | 90 | 90 | – | 90 | ≥ 70 | – | – | – | –
4 | O=C(Nc1cccc(C(=O)Nc2c(I)cc(C(F)(C(F)(F)F)C(F)(F)F)cc2OC(F)(F)F)c1F)c1ccc(C(F)(F)F)nc1 [Compound 118, N-(2-fluoro-3-((2-iodo-4-(perfluoropropan-2-yl)-6-(trifluoromethoxy)phenyl)carbamoyl)phenyl)-6-(trifluoromethyl)nicotinamide] | 100 | 100 | 95 | ≥ 70 | 95 | 95 | 95 | 95 | ≥ 70 | 90 | 90 | 90 | – | – | 90 | 90 | ≥ 70 | 95 | 100 | 90 | pest or weed control at 1 µg/cm2, 1 µg/cm2 (Amblyomma americanum): 90%
5 | O=C(Nc1cccc(C(=O)Nc2c(I)cc(C(F)(C(F)(F)F)C(F)(F)F)cc2[S+]([O-])C(F)(F)F)c1F)c1ccc(F)cc1 (stereo not drawn) [Compound 65] | 100 | 100 | 95 | ≥ 70 | 95 | 95 | 95 | 95 | ≥ 70 | – | 90 | 90 | – | – | 90 | 90 | ≥ 70 | 95 | – | 90 | pest or weed control at 1 µg/cm2, 1 µg/cm2 (Amblyomma americanum): 90%
6 | O=C(Nc1cccc(C(=O)Nc2c(I)cc(C(F)(C(F)(F)F)C(F)(F)F)cc2C(F)(F)F)c1F)c1ccc(F)nc1 [Compound 116, 6-fluoro-N-(2-fluoro-3-((2-iodo-4-(perfluoropropan-2-yl)-6-(trifluoromethyl)phenyl)carbamoyl)phenyl)nicotinamide] | 100 | 100 | 95 | ≥ 70 | 95 | 95 | 95 | 95 | ≥ 70 | – | – | – | – | – | – | 90 | ≥ 70 | 95 | 100 | 90 | pest or weed control at 0.04 µg/cm2, 0.04 µg/cm2 (Ctenocephalides felis [2]; dose 0.04 μg/cm^2, dead or moribund fleas after 48 h): 95%; pest or weed control at 1 µg/cm2, 1 µg/cm2 (Amblyomma americanum): 90%; pest or weed control at 0.0064 ppm (Ctenocephalides felis [3]; dose 0.0064 ppm in citrated cattle blood): 95%; pest or weed control at 0.2 µg/cm2, 0.2 µg/cm2 (Ixodes ricinus; 48 h): 90%; pest or weed control at 1 µg/cm2, 1 µg/cm2 (Ixodes ricinus; 48 h): 90%
7 | CN(C(=O)c1ccc(F)cc1)c1cccc(C(=O)Nc2c(Br)cc(C(F)(C(F)(F)F)C(F)(F)F)cc2OC(F)(F)F)c1F [Compound 72] | 100 | 100 | 95 | ≥ 70 | – | – | 95 | 95 | ≥ 70 | 90 | 90 | 90 | 90 | 90 | 90 | 90 | ≥ 70 | 95 | 100 | – | pest or weed control at 0.04 µg/cm2, 0.04 µg/cm2 (Rhipicephalus sanguineus): 90%
8 | O=C(Nc1cccc(C(=O)Nc2c(Br)cc(C(F)(C(F)(F)F)C(F)(F)F)cc2OC(F)(F)F)c1F)c1ccc(C(F)(F)F)nc1 [Compound 99, N-(2-fluoro-3-((2-bromo-4-(perfluoropropan-2-yl)-6-(trifluoromethoxy)phenyl)carbamoyl)phenyl)-6-(trifluoromethyl)nicotinamide] | 100 | 100 | – | ≥ 70 | – | 95 | 95 | 95 | ≥ 70 | – | 90 | – | 90 | 90 | 90 | 90 | ≥ 70 | – | – | – | –
